# Calls of active or inactive are those of the source. No rule for the calls is given here.
# System: HepG2 cytotoxicity
# Experiment: human hepatoma cell viability loss – cytotoxicity control (AID 1159563)
row,SMILES,IC50
1,Oc1c(-c2n[nH]c(Cc3ccc(F)cc3)n2)ncc2cccnc12,25 µM
2,CCC(=O)Nc1ccccc1C(=O)Nc1ccccn1,> 100 µM (inactive)
3,Cc1cc(NC(=O)CC2CCCCC2)n(-c2nc3c(c(=O)[nH]2)CCC3)n1,> 100 µM (inactive)
4,COc1ccc(NC(=O)c2ccc(NC(=O)CN(c3ccccc3C)S(C)(=O)=O)cc2)cc1,40 µM
5,N#Cc1cccc(Cc2cc(Nc3cc(C4CC4)[nH]n3)nc(N3CC[C@H]3C(N)=O)n2)c1,> 100 µM (inactive)
6,C[C@@H](Oc1cc(-n2cnc3ccc(O[C@H]4CCNC4)cc32)sc1C(N)=O)c1ccccc1Cl,16 µM
7,Cc1nccn1C1CCCN(C(=O)c2cc3c(F)cccc3s2)C1 (centres undefined),> 100 µM (inactive)
8,O=c1[nH]c(C=Cc2cccc(OCCOc3ccccc3)c2)nc(O)c1[N+](=O)[O-],> 100 µM (inactive)
9,CC1CN(Cc2ccc(C#N)cc2)CCN1c1ccc(NC(=O)c2ccccc2F)cc1 (centres undefined),> 100 µM (inactive)
10,CC(=O)Nc1ccc(Nc2nccc(-c3cnn4ncccc34)n2)cc1C(F)(F)F,> 100 µM (inactive)
11,COc1ccc(-c2nc3ncccc3o2)cc1NC(=O)c1cccs1,> 100 µM (inactive)
12,Cc1ccc(NC(=O)C(C)n2nc([N+](=O)[O-])c(Br)c2C)cc1Cl (centres undefined),79 µM
13,Cc1ncsc1CNc1cnc(-c2ccc3c(c2)OCCO3)c(-c2cnn(C)c2)c1,> 100 µM (inactive)
14,Nc1nccc(-c2csc(Nc3ccc(Cl)cc3)n2)n1,> 100 µM (inactive)
15,CC(C)S(=O)(=O)c1ccc(-c2cnc(N)c3cc(-c4ccnc(N)n4)ccc23)cc1,16 µM
16,CC(C)C[C@H](NC(=O)c1csc(-c2cccs2)n1)C(=O)NC1(C#N)CC1,> 100 µM (inactive)
17,O=c1cc(CSc2ccc(Cl)cc2)nc(-c2ccccn2)[nH]1,> 100 µM (inactive)
18,COc1ccc(CN(C)Cc2ccncc2)cc1-c1ccc(S(=O)(=O)NC2CCC2)s1,> 100 µM (inactive)
19,O=C(NCc1ccncc1)c1ccccc1N1CCCN(C(=O)Cc2ccc(F)c(F)c2)CC1,> 100 µM (inactive)
20,O=C(CN(Cc1ccccn1)Cc1ccccn1)NC1Cc2ccccc2C1,> 160 µM (inactive)
21,COc1cc(C(C)C)c(S(C)(=O)=O)cc1C(=O)N1CCN(c2ccccc2Cl)CC1,> 100 µM (inactive)
22,O=C(Nc1n[nH]c(-c2ccccn2)n1)C1CC1c1ccccc1 (centres undefined),> 100 µM (inactive)
23,C=CCN(Cc1cccs1)C(=O)CSc1nnc(-c2ccc3c(c2)OCO3)o1,> 100 µM (inactive)

row,SMILES,IC50
1,Cc1ccc(S(C)(=O)=O)cc1Nc1nccc(-c2sc(N)nc2-c2ccccc2)n1,32 µM
2,Fc1ccccc1N1C[C@H]2CCN(c3cccnc3)C[C@H]2C1,> 100 µM (inactive)
3,O=C(CSc1ccc(F)cc1)N[C@@H](Cc1cnc[nH]1)C(=O)NCCc1ccccc1,> 100 µM (inactive)
4,COc1ccc2ncc(=O)n(CCN3CC[C@H](NCc4ncc(Cl)c5[nH]ncc45)[C@H](O)C3)c2n1,> 100 µM (inactive)
5,COc1ccc(-c2cc(C)no2)cc1S(=O)(=O)Nc1ccc(C)c(C)c1,> 100 µM (inactive)
6,O=C(NCc1ccc(Cl)cc1)C1CN(C(=O)c2ccc(F)cc2)CCS1 (centres undefined),> 100 µM (inactive)
7,c1ccc(CCNCc2cncc3nc(-c4cnccn4)n(C4CCCCC4)c23)cc1,> 100 µM (inactive)
8,O=C(CSc1nnc(-c2ccc3c(c2)OCO3)o1)N(Cc1ccco1)CC(F)(F)F,> 100 µM (inactive)
9,Cc1nc(-c2ccncc2)ncc1C(C)NC(=O)c1ccc(Cl)s1 (centres undefined),> 100 µM (inactive)
10,CC(C)(C)C(=O)Nc1cc(C2CC2)nn1-c1nc2c(c(=O)[nH]1)CCCC2,> 100 µM (inactive)
11,CC(C)Nc1nc(Cl)nc2ccccc12,40 µM
12,CN(C)c1ccc(N)cc1CN(CC1CCCO1)S(C)(=O)=O (centres undefined),> 100 µM (inactive)
13,CCN(Cc1ccncc1)Cc1ccc(NC(=O)c2cc(-c3ccc(F)cc3)n[nH]2)cc1,> 100 µM (inactive)
14,Cc1ccc(NC(=O)c2ccnc(N3CCCC3)c2)cc1-c1cc(C(N)=O)ccc1C,> 100 µM (inactive)
15,CS(=O)(=O)c1ccc(Nc2nccc(-c3cnn4ncccc34)n2)cc1,16 µM
16,CN(Cc1nnnn1C1CCN(Cc2ccc(-n3ccnc3)cc2)CC1)c1ccc(F)cc1F,> 100 µM (inactive)
17,O=c1ccc2ccc(F)c3c2n1C[C@H]3CN1CCC(NCc2cc3ccccc3o2)CC1,40 µM
18,CN(C)S(=O)(=O)c1cccc(CSc2nnc(-c3ccc4c(c3)OCO4)o2)c1,> 100 µM (inactive)
19,COc1ccc(-c2csc(NC(=O)c3ccc([N+](=O)[O-])s3)n2)cc1,> 100 µM (inactive)
20,Cc1occc1C(=O)Nc1ccccc1C(=O)Nc1nccs1,> 100 µM (inactive)
21,Cc1ccc(C)c(OC2CCN(C(=O)C(C)n3ccnc3)CC2)c1 (centres undefined),> 100 µM (inactive)
22,COc1ccc(C2C3CCCCC3(O)CCN2CC(=O)Nc2ccc(Cl)cc2Cl)cc1 (centres undefined),> 100 µM (inactive)
23,Nc1nonc1-c1nc2cncc(C(=O)N3CC[C@H](N)C3)c2n1CC1CC1,> 100 µM (inactive)

row,SMILES,IC50
1,COc1cc(OC)cc(C(=O)N[C@@H](CC(C)C)C(=O)NC2(C#N)CC2)c1,> 100 µM (inactive)
2,N#Cc1ccc(C(=O)Nc2cccc(-c3cccc(CN4CCC(O)CC4)c3)c2)cc1,40 µM
3,Cc1nc2nc(C)c(Cc3ccc(C(C)C)cc3)c(=O)n2[nH]1,> 100 µM (inactive)
4,NCc1ccc2c(Cl)cc(Cl)c(O)c2n1,25 µM
5,Cc1ccc(C)c(CN2C(=O)NC3(CCc4ccccc43)C2=O)c1 (centres undefined),> 100 µM (inactive)
6,Cc1ccc(NC(=O)c2ccc([N+](=O)[O-])s2)cc1S(=O)(=O)N1CCOCC1,16 µM
7,CC(C)c1cc(Nc2cc(Cc3ccccc3)nc(NC3CCC(O)CC3)n2)n[nH]1 (centres undefined),32 µM
8,Cn1ccnc1-c1nc(NCc2ccccc2Cl)cc(C2CC2)n1,20 µM
9,CN(Cc1nc2c(C(=O)N3CCN(Cc4ccccc4)CC3)cccc2[nH]1)C1CCCc2cccnc21 (centres undefined),13 µM
10,O=S(=O)(c1cccc(CSc2nnc(-c3ccc4c(c3)OCO4)o2)c1)N1CCOCC1,> 100 µM (inactive)
11,CC(C)(C)CC(=O)NCCc1csc(-c2ccc(F)cc2)n1,> 100 µM (inactive)
12,CCN(CC)c1ccc(S(=O)(=O)N(CC)CC)c2nonc12,> 100 µM (inactive)
13,CN(C(=O)Nc1ccc2c(c1)CCN(C1CCC1)CC2)c1ccc(C#N)cc1,> 100 µM (inactive)
14,NC(=O)c1ncccc1Nc1nc(NC2CCC(O)CC2)ncc1Br (centres undefined),> 100 µM (inactive)
15,Cc1nc2c(-c3n[nH]c(-c4ccccc4N)n3)cccn2c1C,16 µM
16,Cc1cc2cc(CNc3ccc4c(c3)OCO4)c(=O)n(CCO)c2cc1C,> 100 µM (inactive)
17,O=C(Nc1cccc(F)c1)N1CCC(Oc2cccc(-c3cccnc3)c2)CC1,> 100 µM (inactive)
18,CC(=O)Nc1ccc(-c2cnc(N)c(-c3nc4ccc(F)cc4[nH]3)c2)cc1,10 µM
19,Cn1nc([N+](=O)[O-])nc1N1CCCCC1,> 100 µM (inactive)
20,Cn1c(CN2CCN(c3ncc(C(F)(F)F)cc3Cl)CC2)nc2ccncc21,> 100 µM (inactive)
21,O=C(NCCc1nc(-c2ccc(F)c(F)c2)n[nH]1)C1CCCCC1,> 100 µM (inactive)
22,O=C(c1ccc(OCCCc2cnc[nH]2)cc1)C1CC1,> 100 µM (inactive)
23,CC(Cn1ccnc1)NC(=O)COc1ccc(Cl)c(Cl)c1 (centres undefined),> 100 µM (inactive)

# — PubChem BioAssay AID1159563 (GlaxoSmithKline (GSK), 2015)
